# According to patent US10689339B2, “Pyrrolidine derivatives” (Hoffmann-La Roche Inc., priority 2016, dated 2020):
# Target: human Cat S (Homo sapiens (Human), UniProt P25774)
# Assay: Cathepsin enzyme inhibition assay (fluorogenic peptide substrate Z-Val-Val-Arg-AMC)
# Assay type: biochemical
# Settings: enzyme 1 nM, substrate 20 μM, pH 6.5
# Experimental: Cathepsin Enzyme Inhibition Assay
# Enzyme activity is measured by observing the increase in fluorescence intensity caused by cleavage of a peptide substrate containing a fluorophore whose emission is quenched in the intact peptide.
# Assay buffer: 100 mM potassium phosphate pH 6.5, EDTA-Na 5 mM, Triton X-100 0.001%, DTT 5 mM.
# Enzymes (all at 1 nM): human and mouse Cathepsin S, Cat K, Cat B, Cat L.
# Substrate (20 μM): Z-Val-Val-Arg-AMC, except for Cat K which uses Z-Leu-Arg-AMC (both from Bachem).
# AMC=7-Amino-4-Methyl-Coumarin.
# Excitation 360 nm, Emission 465 nm.
# Enzyme is added to the substance dilutions in 96-well microtitre plates and the reaction is started with substrate. […] IC50 are calculated by standard methods.
# Inhibition of human Cat S, mouse Cat S, human Cat K, human Cat B, human Cat L and mouse Cat L have been measured separately.
# Sequence of human Cat S (P25774 115-331): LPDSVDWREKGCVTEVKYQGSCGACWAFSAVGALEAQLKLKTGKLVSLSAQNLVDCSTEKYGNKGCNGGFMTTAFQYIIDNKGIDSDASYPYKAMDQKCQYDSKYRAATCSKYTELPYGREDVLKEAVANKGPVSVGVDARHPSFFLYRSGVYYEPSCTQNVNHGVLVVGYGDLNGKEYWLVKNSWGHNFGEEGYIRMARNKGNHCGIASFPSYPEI
row,Compound,IC50 [nM]
1,"N#CC1(NC(=O)[C@@H]2C[C@@H](S(=O)(=O)c3ccc(-c4ccccc4CO)cc3)CN2C(=O)C2(C(F)(F)F)CC2)CC1 [Example 43, (2S,4R)—N-(1-cyanocyclopropyl)-4-(2′-(hydroxymethyl)biphenyl-4-ylsulfonyl)-1-(1-(trifluoromethyl)cyclopropanecarbonyl)pyrrolidine-2-carboxamide]",3.57
2,"N#CC1(NC(=O)[C@@H]2C[C@@H](S(=O)(=O)c3ccc(-c4c[nH]nc4C(F)(F)F)cc3C(F)(F)F)CN2C(=O)C2(C(F)(F)F)CC2)CC1 [Example 58, (2S,4R)-1-(1-Trifluoromethyl-cyclopropanecarbonyl)-4-[2-trifluoromethyl-4-(3-trifluoromethyl-1Hpyrazol-4-yl)-benzenesulfonyl]-pyrrolidine-2-carboxylic acid (1-cyano-cyclopropyl)-amide]",2.42
3,"Cc1ncc(-c2ccc(S(=O)(=O)[C@@H]3C[C@@H](C(=O)NC4(C#N)CC4)N(C(=O)C4(C(F)(F)F)CC4)C3)c(C)c2)s1 [Example 61, (2S,4R)—N-(1-cyanocyclopropyl)-4-(2-methyl-4-(2-methylthiazol-5-yl)phenylsulfonyl)-1-(1-(trifluoromethyl)cyclopropanecarbonyl)pyrrolidine-2-carboxamide]",0.613
4,"Cc1cc(-c2ccc(S(=O)(=O)[C@@H]3C[C@@H](C(=O)NC4(C#N)CC4)N(C(=O)C4(C(F)(F)F)CC4)C3)c(C(F)(F)F)c2)cc[n+]1[O-] [Example 2, (2S,4R)-4-[4-(2-Methyl-1-oxy-pyridin-4-yl)-2-trifluoromethyl-benzenesulfonyl]-1-(1-trifluoromethyl-cyclopropanecarbonyl)-pyrrolidine-2-carboxylic acid (1-cyano-cyclopropyl)-amide]",0.77
5,"CCOc1ccccc1-c1ccc(S(=O)(=O)[C@@H]2C[C@@H](C(=O)NC3(C#N)CC3)N(C(=O)C3(C(F)(F)F)CC3)C2)c(C(F)(F)F)c1 [Example 5, (2S,4R)-4-(2′-Ethoxy-3-trifluoromethyl-biphenyl-4-sulfonyl)-1-(1-trifluoromethyl-cyclopropanecarbonyl)-pyrrolidine-2-carboxylic acid (1-cyano-cyclopropyl)-amide]",0.836
6,"N#CC1(NC(=O)[C@@H]2C[C@@H](S(=O)(=O)c3ccc(-n4cnc(Cl)n4)cc3Cl)CN2C(=O)C2(C(F)(F)F)CC2)CC1 [Example 16, (2S,4R)-4-(2-chloro-4-(3-chloro-1H-1,2,4-triazol-1-yl)phenylsulfonyl)-N-(1-cyanocyclopropyl)-1-(1-(trifluoromethyl)cyclopropanecarbonyl)pyrrolidine-2-carboxamide]",0.563
7,"N#CC1(NC(=O)[C@@H]2C[C@@H](S(=O)(=O)c3ccc(-c4cc[n+]([O-])c(Cl)c4)cc3C(F)(F)F)CN2C(=O)C2(C(F)(F)F)CC2)CC1 [Example 1, (2S,4R)-4-[4-(2-Chloro-1-oxy-pyridin-4-yl)-2-trifluoromethyl-benzenesulfonyl]-1-(1-trifluoromethyl-cyclopropanecarbonyl)-pyrrolidine-2-carboxylic acid (1-cyano-cyclopropyl)-amide]",0.968
8,"Cc1noc(C)c1-c1ccc(S(=O)(=O)[C@@H]2C[C@@H](C(=O)NC3(C#N)CC3)N(C(=O)C3(C(F)(F)F)CC3)C2)cc1 [Example 55, (2S,4R)—N-(1-cyanocyclopropyl)-4-(4-(3,5-dimethylisoxazol-4-yl)phenylsulfonyl)-1-(1-(trifluoromethyl)cyclopropanecarbonyl)pyrrolidine-2-carboxamide]",1.44
9,"N#CC1(NC(=O)[C@@H]2C[C@@H](S(=O)(=O)c3ccc(OC4CCC4)cc3Cl)CN2C(=O)C2(C(F)(F)F)CC2)CC1 [Example 21, (2S,4R)-4-(2-chloro-4-cyclobutoxyphenylsulfonyl)-N-(1-cyanocyclopropyl)-1-(1-(trifluoromethyl)cyclopropanecarbonyl)pyrrolidine-2-carboxamide]",1.07
10,"Cc1ncnn1-c1ccc(S(=O)(=O)[C@@H]2C[C@@H](C(=O)NC3(C#N)CC3)N(C(=O)C3(C(F)(F)F)CC3)C2)c(Cl)c1 [Example 52, (2S,4R)-4-(2-chloro-4-(5-methyl-1H-1,2,4-triazol-1-yl)phenylsulfonyl)-N-(1-cyanocyclopropyl)-1-(1-(trifluoromethyl)cyclopropanecarbonyl)pyrrolidine-2-carboxamide]",0.486
11,"Cc1cc(-c2c(C)noc2C)ccc1S(=O)(=O)[C@@H]1C[C@@H](C(=O)NC2(C#N)CC2)N(C(=O)C2(C(F)(F)F)CC2)C1 [Example 64, (2S,4R)—N-(1-cyanocyclopropyl)-4-(4-(3,5-dimethylisoxazol-4-yl)-2-methylphenylsulfonyl)-1-(1-(trifluoromethyl)cyclopropanecarbonyl)pyrrolidine-2-carboxamide]",0.65
12,"N#CC1(NC(=O)[C@@H]2C[C@@H](S(=O)(=O)c3ccc(-n4ccnn4)cc3Cl)CN2C(=O)C2(C(F)(F)F)CC2)CC1 [Example 13, (2S,4R)-4-(2-chloro-4-(1H-1,2,3-triazol-1-yl)phenylsulfonyl)-N-(1-cyanocyclopropyl)-1-(1-(trifluoromethyl)cyclopropanecarbonyl)pyrrolidine-2-carboxamide]",0.568
13,"Cc1nc(C)c(-c2ccc(S(=O)(=O)[C@@H]3C[C@@H](C(=O)NC4(C#N)CC4)N(C(=O)C4(C(F)(F)F)CC4)C3)cc2)s1 [Example 49, (2S,4R)—N-(1-cyanocyclopropyl)-4-(4-(2,4-dimethylthiazol-5-yl)phenylsulfonyl)-1-(1-(trifluoromethyl)cyclopropanecarbonyl)pyrrolidine-2-carboxamide]",0.909
14,"Cn1nc(C(F)(F)F)cc1-c1ccc(S(=O)(=O)[C@@H]2C[C@@H](C(=O)NC3(C#N)CC3)N(C(=O)C3(C(F)(F)F)CC3)C2)c(C(F)(F)F)c1 [Example 3, (2S,4R)-4-[4-(2-Methyl-5-trifluoromethyl-2Hpyrazol-3-yl)-2-trifluoromethyl-benzenesulfonyl]-1-(1-trifluoromethyl-cyclopropanecarbonyl)-pyrrolidine-2-carboxylic acid (1-cyano-cyclopropyl)-amide]",1.02
15,"N#CC1(NC(=O)[C@@H]2C[C@@H](S(=O)(=O)c3ccc(OC4CCC4)cc3C(F)(F)F)CN2C(=O)C2(C(F)(F)F)CC2)CC1 [Example 7, (2S,4R)-4-(4-Cyclobutoxy-2-trifluoromethyl-benzenesulfonyl)-1-(1-trifluoromethyl-cyclopropanecarbonyl)-pyrrolidine-2-carboxylic acid (1-cyano-cyclopropyl)-amide]",0.91

# The remaining lines, values ahead:
row,IC50 [nM],Compound
1,0.728,"Cc1ncc(-c2ccc(S(=O)(=O)[C@@H]3C[C@@H](C(=O)NC4(C#N)CC4)N(C(=O)C4(C(F)(F)F)CC4)C3)cc2)s1 [Example 50, (2S,4R)—N-(1-cyanocyclopropyl)-4-(4-(2-methylthiazol-5-yl)phenylsulfonyl)-1-(1-(trifluoromethyl)cyclopropanecarbonyl)pyrrolidine-2-carboxamide]"
2,2.33,"Cn1nc(C(F)(F)F)cc1-c1ccc(S(=O)(=O)[C@@H]2C[C@@H](C(=O)NC3(C#N)CC3)N(C(=O)C3(C(F)(F)F)CC3)C2)cc1 [Example 28, (2S,4R)—N-(1-cyanocyclopropyl)-4-(4-(1-methyl-3-(trifluoromethyl)-1H-pyrazol-5-yl)phenylsulfonyl)-1-(1-(trifluoromethyl)cyclopropanecarbonyl)pyrrolidine-2-carboxamide]"
3,0.54,"Cc1ncnn1-c1ccc(S(=O)(=O)[C@@H]2C[C@@H](C(=O)NC3(C#N)CC3)N(C(=O)C3(C(F)(F)F)CC3)C2)c(C(F)(F)F)c1 [Example 31, (2S,4R)—N-(1-cyanocyclopropyl)-4-(4-(5-methyl-1H-1,2,4-triazol-1-yl)-2-(trifluoromethyl)phenylsulfonyl)-1-(1-(trifluoromethyl)cyclopropanecarbonyl) pyrrolidine-2-carboxamide]"
4,0.882,"COc1ncc(-c2ccc(S(=O)(=O)[C@@H]3C[C@@H](C(=O)NC4(C#N)CC4)N(C(=O)C4(C(F)(F)F)CC4)C3)cc2)cn1 [Example 51, (2S,4R)—N-(1-cyanocyclopropyl)-4-(4-(2-methoxypyrimidin-5-yl)phenylsulfonyl)-1-(1-(trifluoromethyl)cyclopropanecarbonyl)pyrrolidine-2-carboxamide]"
5,0.564,"Cc1nnn(-c2ccc(S(=O)(=O)[C@@H]3C[C@@H](C(=O)NC4(C#N)CC4)N(C(=O)C4(C(F)(F)F)CC4)C3)c(C(F)(F)F)c2)n1 [Example 57, (2S,4R)-4-[4-(5-Methyl-tetrazol-2-yl)-2-trifluoromethyl-benzenesulfonyl]-1-(1-trifluoromethyl-cyclopropanecarbonyl)-pyrrolidine-2-carboxylic acid (1-cyano-cyclopropyl)-amide]"
6,1.02,"N#CC1(NC(=O)[C@@H]2C[C@@H](S(=O)(=O)c3ccc(-n4ccc(C(F)(F)F)n4)cc3)CN2C(=O)C2(C(F)(F)F)CC2)CC1 [Example 35, (2S,4R)—N-(1-cyanocyclopropyl)-4-(4-(3-(trifluoromethyl)-1H-pyrazol-1-yl)phenylsulfonyl)-1-(1-(trifluoromethyl)cyclopropanecarbonyl)pyrrolidine-2-carboxamide]"
7,0.704,"N#CC1(NC(=O)[C@@H]2C[C@@H](S(=O)(=O)c3ccc(-n4ccc(C(F)(F)F)n4)cc3Cl)CN2C(=O)C2(C(F)(F)F)CC2)CC1 [Example 17, (2S,4R)-4-(2-chloro-4-(3-(trifluoromethyl)-1H-pyrazol-1-yl)phenylsulfonyl)-N-(1-cyanocyclopropyl)-1-(1-(trifluoromethyl)cyclopropanecarbonyl)pyrrolidine-2-carboxamide]"
